Results published in ChEMBL document CHEMBL1135206, “Albumin affinity tags increase peptide half-life in vivo” (Bioorg Med Chem Lett, 2002).
Where a SMILES comes first, the peptide text is derived from it. Bridges are numbered along the chain shown (N, C = ends). The star is where a group is joined. X1 = CC(C)Cc1ccc([C@@H](C)C(=O)*)cc1

What was measured:
[1] = Plasma half-life in male New Zealand white rabbits after i.v. administration at 2.0 mg/kg; format: ADME, organism-based, Oryctolagus cuniculus; set-up: dose 2 mg/kg, route intravenous; conditions: rabbit, iv
[2] = Mean retention time in male New Zealand white rabbits after administration via an indwelling catheter in an ear vein at 4.9 mg/kg; format: ADME, organism-based, Oryctolagus cuniculus; set-up: dose 4.9 mg/kg; conditions: rabbit, in vivo, iv
[3] = Mean retention time in male New Zealand white rabbits after i.v. administration at 2.0 mg/kg; format: ADME, organism-based, Oryctolagus cuniculus; set-up: dose 2 mg/kg, route intravenous; conditions: rabbit, in vivo, iv
[4] = Plasma half-life in male New Zealand white rabbits after administration via an indwelling catheter in an ear vein at 4.9 mg/kg; format: ADME, organism-based, Oryctolagus cuniculus; set-up: dose 4.9 mg/kg; conditions: rabbit, iv
[5] = Clearance in male New Zealand white rabbits after administration via an indwelling catheter in an ear vein at 4.9 mg/kg; format: ADME, organism-based, Oryctolagus cuniculus; set-up: dose 4.9 mg/kg; conditions: rabbit, in vivo, iv
[6] = Clearance in male New Zealand white rabbits after i.v. administration at 2.0 mg/kg; format: ADME, organism-based, Oryctolagus cuniculus; set-up: dose 2 mg/kg, route intravenous; conditions: rabbit, in vivo, iv
Coagulation factor VII = biological target: T1, Coagulation factor VII (Homo sapiens, UniProt P08709); assay: Inhibition of amino terminally biotinylated E-76 peptide binding to immobilized fVIIa
T1 sequence (P08709 whole entry): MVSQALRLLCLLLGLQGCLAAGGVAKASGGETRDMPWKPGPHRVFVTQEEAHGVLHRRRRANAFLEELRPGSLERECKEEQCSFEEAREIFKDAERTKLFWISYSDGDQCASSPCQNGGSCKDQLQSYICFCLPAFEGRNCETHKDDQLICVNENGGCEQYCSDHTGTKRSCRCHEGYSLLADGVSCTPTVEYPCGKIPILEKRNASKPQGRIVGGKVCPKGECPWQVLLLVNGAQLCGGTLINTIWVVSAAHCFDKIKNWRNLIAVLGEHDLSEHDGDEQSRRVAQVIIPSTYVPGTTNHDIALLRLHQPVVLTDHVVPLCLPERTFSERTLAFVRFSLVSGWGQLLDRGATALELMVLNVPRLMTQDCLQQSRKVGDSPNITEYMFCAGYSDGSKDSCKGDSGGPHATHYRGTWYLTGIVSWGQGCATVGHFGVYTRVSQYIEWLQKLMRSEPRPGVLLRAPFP

Albumin = Albumin (Homo sapiens, UniProt P02768); assay: In vitro binding affinity for human serum albumin.; set-up: unit not given here
Chain of Albumin (P02768 whole entry): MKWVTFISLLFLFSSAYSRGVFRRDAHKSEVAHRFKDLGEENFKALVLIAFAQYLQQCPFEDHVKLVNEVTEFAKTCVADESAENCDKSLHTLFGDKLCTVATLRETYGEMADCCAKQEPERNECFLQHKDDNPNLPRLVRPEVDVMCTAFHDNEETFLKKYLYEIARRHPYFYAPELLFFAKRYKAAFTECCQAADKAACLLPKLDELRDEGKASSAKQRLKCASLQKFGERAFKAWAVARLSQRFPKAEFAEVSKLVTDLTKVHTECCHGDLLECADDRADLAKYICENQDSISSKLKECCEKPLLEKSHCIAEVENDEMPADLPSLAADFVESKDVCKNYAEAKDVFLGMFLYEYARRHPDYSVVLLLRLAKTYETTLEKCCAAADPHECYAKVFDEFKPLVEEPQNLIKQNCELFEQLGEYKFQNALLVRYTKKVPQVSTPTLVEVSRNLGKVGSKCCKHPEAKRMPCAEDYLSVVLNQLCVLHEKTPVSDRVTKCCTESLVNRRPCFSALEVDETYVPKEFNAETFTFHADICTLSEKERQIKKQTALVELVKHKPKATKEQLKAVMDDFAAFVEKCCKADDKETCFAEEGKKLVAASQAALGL

half-life [1]: 17 min | MRT [2]: 33 min | MRT [3]: 19 min | half-life [4]: 24 min | clearance [5]: 1.5 mL/min/kg | clearance [6]: 1.8 mL/min/kg | IC50 (Coagulation factor VII): 14.6 nM | Binding affinity (Albumin): 0.76
Structure (SMILES): CC[C@H](C)[C@@H]1NC(=O)[C@H](CCCN=C(N)N)NC(=O)[C@@H]2CCCN2C(=O)[C@H](CC(N)=O)NC(=O)[C@H](CC(=O)O)NC(=O)[C@@H](NC(=O)[C@H](CC(C)C)NC(=O)[C@H](C)NC(=O)[C@H](C)c2ccc(CC(C)C)cc2)CSSC[C@@H](C(=O)N[C@@H](CCC(N)=O)C(=O)N[C@@H](Cc2ccccc2)C(=O)N[C@H](C(=O)N[C@@H](CCC(=O)O)C(=O)NCC(N)=O)C(C)C)NC(=O)[C@H](Cc2ccc(O)cc2)NC(=O)[C@H](Cc2c[nH]c3ccccc23)NC(=O)[C@H](CCCN=C(N)N)NC(=O)[C@H](CC(=O)O)NC1=O (X1-ALCDNPRIDRWYCQFVEG-NH2; disulfide 3-13)
